The source of these data is patent publication US9492471B2, “Methods of treating a disease or disorder associated with Bruton'S Tyrosine Kinase” (Celgene Avilomics Research, Inc., priority 2013, dated 2016).

Common to all, as to assay: HotSpot kinase profiling
Holding throughout (type): biochemical

In one assay the target is T1, ACK1 (Homo sapiens, UniProt Q07912).
T1 construct: purchased Reaction Biology Corp
Put shortly:
(§1)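 Radiometric kinase assay with P81 filter capture; each kinase was added to fresh substrate plus cofactors in reaction buffer and incubated 2 h at room temperature. Unreacted phosphate was washed off with 0.1% phosphoric acid before detection; percent inhibition is relative to DMSO control, averaged over replicates.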

Another assay addresses T2, BMPR2 (Homo sapiens, UniProt Q13873).
T2 construct: purchased Reaction Biology Corp
T2 sequence (Q13873 27-1038): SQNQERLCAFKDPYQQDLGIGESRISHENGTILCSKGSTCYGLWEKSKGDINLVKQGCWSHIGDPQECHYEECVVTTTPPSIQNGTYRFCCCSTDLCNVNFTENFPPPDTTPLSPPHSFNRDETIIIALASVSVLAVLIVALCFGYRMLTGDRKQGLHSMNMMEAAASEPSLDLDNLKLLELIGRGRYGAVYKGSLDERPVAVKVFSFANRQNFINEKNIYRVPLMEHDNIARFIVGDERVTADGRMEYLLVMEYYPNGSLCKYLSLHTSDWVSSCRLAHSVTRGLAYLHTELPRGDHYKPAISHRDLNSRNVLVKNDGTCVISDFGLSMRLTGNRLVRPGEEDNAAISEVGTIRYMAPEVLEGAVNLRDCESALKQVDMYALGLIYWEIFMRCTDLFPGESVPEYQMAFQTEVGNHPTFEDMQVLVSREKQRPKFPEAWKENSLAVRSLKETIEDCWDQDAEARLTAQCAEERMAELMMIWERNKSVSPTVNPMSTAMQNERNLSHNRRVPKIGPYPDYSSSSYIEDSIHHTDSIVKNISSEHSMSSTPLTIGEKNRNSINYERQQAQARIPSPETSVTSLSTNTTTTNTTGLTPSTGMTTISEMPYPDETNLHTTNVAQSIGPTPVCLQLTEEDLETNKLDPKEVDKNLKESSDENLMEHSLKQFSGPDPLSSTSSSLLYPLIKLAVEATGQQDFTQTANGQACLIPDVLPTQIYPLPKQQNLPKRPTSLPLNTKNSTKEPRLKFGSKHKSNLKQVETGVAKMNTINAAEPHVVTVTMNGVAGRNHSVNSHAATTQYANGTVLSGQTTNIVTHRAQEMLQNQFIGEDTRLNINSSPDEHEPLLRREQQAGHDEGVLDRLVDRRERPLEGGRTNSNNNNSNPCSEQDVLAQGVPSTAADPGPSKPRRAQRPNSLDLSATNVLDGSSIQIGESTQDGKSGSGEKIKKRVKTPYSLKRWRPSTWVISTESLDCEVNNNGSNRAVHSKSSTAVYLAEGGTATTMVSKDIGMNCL
Put shortly:
as §1

The next assay has as its target T3, DDR2 (Homo sapiens, UniProt Q16832).
T3 construct: purchased Reaction Biology Corp
T3 sequence (Q16832 22-855): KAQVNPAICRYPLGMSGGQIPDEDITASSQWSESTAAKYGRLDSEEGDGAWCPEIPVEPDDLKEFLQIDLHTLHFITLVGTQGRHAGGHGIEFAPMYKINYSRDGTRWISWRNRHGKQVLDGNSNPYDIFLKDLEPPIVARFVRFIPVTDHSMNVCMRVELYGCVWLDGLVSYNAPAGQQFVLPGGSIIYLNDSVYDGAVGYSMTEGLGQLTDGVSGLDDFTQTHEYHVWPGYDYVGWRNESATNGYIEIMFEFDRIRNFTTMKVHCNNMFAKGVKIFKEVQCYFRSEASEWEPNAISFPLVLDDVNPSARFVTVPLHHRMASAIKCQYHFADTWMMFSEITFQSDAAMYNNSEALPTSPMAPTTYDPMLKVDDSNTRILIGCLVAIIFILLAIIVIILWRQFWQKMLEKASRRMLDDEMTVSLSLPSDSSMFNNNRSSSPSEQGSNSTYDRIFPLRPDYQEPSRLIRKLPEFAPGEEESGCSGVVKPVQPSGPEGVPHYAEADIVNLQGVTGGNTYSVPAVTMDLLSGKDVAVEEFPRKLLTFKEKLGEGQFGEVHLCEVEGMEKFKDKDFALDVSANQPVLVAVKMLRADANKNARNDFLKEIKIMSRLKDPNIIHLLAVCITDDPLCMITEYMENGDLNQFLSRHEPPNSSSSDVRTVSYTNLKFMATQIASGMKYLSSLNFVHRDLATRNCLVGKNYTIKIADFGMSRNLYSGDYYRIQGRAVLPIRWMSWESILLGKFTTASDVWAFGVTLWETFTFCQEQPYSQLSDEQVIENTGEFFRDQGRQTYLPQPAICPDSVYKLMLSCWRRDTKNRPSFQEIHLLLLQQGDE
Put shortly:
as §1

The target of the next assay is T4, FGFR3 (Homo sapiens, UniProt P22607).
T4 construct: purchased Reaction Biology Corp
T4 sequence (P22607 23-806): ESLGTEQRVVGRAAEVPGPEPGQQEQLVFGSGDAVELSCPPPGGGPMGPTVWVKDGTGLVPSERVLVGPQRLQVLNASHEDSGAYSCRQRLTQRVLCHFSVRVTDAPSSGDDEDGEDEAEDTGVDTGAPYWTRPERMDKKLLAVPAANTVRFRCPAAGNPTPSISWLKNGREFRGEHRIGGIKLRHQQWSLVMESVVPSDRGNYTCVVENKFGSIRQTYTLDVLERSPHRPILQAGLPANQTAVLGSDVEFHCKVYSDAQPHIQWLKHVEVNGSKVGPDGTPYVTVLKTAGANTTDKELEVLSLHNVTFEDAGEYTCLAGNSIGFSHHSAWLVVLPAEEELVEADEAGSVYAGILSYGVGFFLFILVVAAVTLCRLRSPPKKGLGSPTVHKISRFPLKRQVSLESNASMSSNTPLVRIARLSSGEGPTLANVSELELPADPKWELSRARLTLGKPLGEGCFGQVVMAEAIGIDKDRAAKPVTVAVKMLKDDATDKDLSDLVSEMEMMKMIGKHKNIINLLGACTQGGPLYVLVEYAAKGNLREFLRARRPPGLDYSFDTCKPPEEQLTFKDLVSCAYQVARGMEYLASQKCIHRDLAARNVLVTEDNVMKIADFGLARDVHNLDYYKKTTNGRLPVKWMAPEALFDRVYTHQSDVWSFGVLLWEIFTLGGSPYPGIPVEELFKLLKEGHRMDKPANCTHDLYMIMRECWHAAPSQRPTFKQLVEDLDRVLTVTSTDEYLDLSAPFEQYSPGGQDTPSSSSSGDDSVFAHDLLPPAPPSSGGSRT
Put shortly:
as §1

The next assay concerns the target T5, TYK2 (Homo sapiens, UniProt P29597).
T5 construct: purchased Reaction Biology Corp
Put shortly: as §1

[1] abbreviates: read-out: % Enzyme Activity (relative to DMSO controls) Run 1.
Where [2] appears, read: read-out: % Enzyme Activity (relative to DMSO controls) Run 2.

Molecules are shown by their SMILES. Read-outs that look alike come from different tables or passages of the source.

T5 sequence (P29597 whole entry): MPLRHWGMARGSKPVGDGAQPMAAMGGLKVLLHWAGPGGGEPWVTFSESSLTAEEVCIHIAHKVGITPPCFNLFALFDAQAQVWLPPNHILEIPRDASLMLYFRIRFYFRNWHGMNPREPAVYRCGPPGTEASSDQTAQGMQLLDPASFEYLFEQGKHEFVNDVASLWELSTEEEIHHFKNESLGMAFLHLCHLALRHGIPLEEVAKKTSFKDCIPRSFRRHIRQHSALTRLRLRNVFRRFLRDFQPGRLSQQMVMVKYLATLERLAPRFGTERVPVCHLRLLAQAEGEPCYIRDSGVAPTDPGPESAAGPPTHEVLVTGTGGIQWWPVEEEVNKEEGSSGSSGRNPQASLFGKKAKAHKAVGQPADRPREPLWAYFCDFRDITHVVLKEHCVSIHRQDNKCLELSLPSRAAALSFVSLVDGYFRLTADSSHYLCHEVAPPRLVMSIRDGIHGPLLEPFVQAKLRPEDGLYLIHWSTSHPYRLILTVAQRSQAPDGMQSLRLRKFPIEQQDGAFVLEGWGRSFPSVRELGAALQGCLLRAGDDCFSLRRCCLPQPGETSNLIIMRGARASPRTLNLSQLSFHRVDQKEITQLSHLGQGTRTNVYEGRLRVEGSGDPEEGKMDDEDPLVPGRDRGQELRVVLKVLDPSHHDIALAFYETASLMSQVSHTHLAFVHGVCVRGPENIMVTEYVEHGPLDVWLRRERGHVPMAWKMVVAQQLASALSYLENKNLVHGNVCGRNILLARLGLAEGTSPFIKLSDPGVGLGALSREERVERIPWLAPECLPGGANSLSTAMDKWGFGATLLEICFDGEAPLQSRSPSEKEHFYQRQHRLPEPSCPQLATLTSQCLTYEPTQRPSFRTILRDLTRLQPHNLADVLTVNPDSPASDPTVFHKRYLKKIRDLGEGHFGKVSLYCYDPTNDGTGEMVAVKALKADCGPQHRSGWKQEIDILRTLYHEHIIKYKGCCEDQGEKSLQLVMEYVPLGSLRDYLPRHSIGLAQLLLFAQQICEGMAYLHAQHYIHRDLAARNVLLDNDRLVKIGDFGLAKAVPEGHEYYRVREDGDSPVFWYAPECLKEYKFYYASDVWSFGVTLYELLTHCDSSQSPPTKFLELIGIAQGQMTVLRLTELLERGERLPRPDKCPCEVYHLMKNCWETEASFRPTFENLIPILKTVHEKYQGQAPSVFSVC
T1 sequence (Q07912 whole entry): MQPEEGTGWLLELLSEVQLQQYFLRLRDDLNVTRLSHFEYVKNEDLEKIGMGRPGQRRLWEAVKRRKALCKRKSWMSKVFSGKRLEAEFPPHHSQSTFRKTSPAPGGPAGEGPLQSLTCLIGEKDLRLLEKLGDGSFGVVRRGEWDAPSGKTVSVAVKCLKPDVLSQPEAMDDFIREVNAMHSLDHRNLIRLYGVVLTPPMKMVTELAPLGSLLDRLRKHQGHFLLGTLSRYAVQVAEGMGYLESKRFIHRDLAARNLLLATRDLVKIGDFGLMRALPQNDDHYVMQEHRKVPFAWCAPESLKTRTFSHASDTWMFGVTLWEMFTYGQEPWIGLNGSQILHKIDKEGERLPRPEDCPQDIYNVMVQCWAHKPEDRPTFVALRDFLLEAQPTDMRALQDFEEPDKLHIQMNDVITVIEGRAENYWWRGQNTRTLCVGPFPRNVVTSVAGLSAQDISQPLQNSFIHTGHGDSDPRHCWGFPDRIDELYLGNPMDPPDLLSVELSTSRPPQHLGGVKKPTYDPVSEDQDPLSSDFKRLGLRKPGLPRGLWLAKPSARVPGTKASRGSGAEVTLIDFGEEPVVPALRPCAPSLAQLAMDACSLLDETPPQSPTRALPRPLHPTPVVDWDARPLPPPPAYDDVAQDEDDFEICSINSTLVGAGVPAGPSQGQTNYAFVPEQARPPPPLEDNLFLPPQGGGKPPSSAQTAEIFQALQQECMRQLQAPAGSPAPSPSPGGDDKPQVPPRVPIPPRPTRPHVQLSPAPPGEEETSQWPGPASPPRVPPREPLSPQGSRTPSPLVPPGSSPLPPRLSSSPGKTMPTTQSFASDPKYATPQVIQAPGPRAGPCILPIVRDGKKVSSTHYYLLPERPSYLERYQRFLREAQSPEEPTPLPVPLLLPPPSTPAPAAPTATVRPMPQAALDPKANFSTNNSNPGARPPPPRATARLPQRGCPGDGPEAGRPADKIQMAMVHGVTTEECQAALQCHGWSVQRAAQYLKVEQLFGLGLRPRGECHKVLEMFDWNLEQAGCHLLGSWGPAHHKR

Broadly, the inhibition is the change of the read-out against control, counted positive when it falls. Regarding `C=CC(=O)Nc1cccc(Nc2nc(Nc3ccc(OCCOC)c(F)c3)ncc2F)c1` [Compound 2], the inhibition at 3 µM against ACK1 is 77.5%; at BMPR2, 16.2%; at DDR2, -3.87%; at FGFR3, 68%; at TYK2, 52.6%. The remaining activity at 3 µM amounted to 22.6% on ACK1 (setting [1]); 22.5% at ACK1 (setting [2]); 83.8% at BMPR2 (setting [1]); 83.8% on BMPR2 (setting [2]); 103% on DDR2 (setting [1]); 105% on DDR2 (setting [2]). Also, the remaining activity at 3 µM on FGFR3 (setting [1]) turned out to be 32.1%; at FGFR3 (setting [2]), 31.8%; at TYK2 (setting [1]) it was 48.2%; on TYK2 (setting [2]), 46.6%.
